Here are results for 30 molecules from US9145354B2, “Pharmaceutical compounds” (priority 2011, dated 2015).

Read-outs that look alike come from different tables or passages of the source.

This experiment concerns the target full length NS3/4a (Hepatitis C virus genotype 1b (isolate BK) (HCV), UniProt P26663). Kind of experiment: NS3 Protease Assay (Example A), FRET-based. In kind it is biochemical. The procedure:
The HCV NS3 protease functions have been extensively studied and are considered as potential targets for antiviral therapy: see for example the many references listed in the introductory section of this application. Therefore, the activity of the compounds of the invention as anti-HCV agents was assessed using a full length HCV NS3 protease.
The protease activity of the full length NS3/4a was measured using a FRET-based assay utilizing a peptide substrate derived from the NS4A/B cleavage site (Anaspec) and labelled at one end with a quencher (QXL520) and at the other with a fluorophore (5-FAMsp). NS3/4a (produced in-house by literature methods) was incubated with test compounds and peptide substrate in 50 mM Tris pH8, 20 mM DTT, 1% CHAPS, 10% glycerol and 5% DMSO. The reaction was followed by monitoring the change in fluorescence on a Molecular Devices Gemini plate reader for 30 minutes at room temperature. Initial rates were calculated from the progress curves using SoftMax Pro (Molecular Devices). IC50 values were then calculated from replicate curves using Prism GraphPad software.

Where [1] appears, read: HCV NS3 protease assay, full length NS3/4a, read-out: Assay A IC50 (μM) average.
Where [2] appears, read: read-out: IC50 against the protease activity of the full length NS3/4a.
The mark [3] stands for this setting: stated as IC50 less than 30 μM or at least 40% inhibition at a concentration of 100 μM, read-out: IC50 against the protease activity of the full length NS3/4a.

full length NS3/4a, sequence (P26663 1027-1657): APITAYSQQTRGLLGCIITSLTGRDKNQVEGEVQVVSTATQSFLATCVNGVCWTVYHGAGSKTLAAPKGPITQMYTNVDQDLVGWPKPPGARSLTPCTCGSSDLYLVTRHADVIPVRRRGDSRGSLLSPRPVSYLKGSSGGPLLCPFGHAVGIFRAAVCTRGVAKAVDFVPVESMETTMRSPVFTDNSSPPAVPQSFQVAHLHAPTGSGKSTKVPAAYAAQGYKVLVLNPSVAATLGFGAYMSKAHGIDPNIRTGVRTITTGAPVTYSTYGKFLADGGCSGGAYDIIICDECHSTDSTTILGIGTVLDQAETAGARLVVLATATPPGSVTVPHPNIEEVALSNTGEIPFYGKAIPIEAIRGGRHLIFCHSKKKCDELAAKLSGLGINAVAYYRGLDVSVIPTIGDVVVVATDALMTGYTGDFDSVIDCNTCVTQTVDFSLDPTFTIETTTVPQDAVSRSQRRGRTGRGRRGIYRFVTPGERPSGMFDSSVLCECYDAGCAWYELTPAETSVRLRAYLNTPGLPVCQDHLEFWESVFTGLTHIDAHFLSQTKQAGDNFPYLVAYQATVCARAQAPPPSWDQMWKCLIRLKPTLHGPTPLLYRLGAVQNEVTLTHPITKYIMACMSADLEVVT

Regarding `CC[C@@H](N)c1ccc(Cl)c(C(=O)c2ccc(C(N)=O)nc2)c1F` [Example 22, 5-({3-[(1R)-1-aminopropyl]-6-chloro-2-fluorophenyl}carbonyl)pyridine-2-carboxamide], the IC50 was 1.8 µM under setting [1] and 1 to 5 µM under setting [2]. By inhibition is commonly meant the relative decrease from the control value, in per cent. The molecule `CC[C@@H](N)c1ccc(O)c(C(=O)c2ccccc2)c1F` [Example 44, 4-[(1R)-1-aminopropyl]-2-benzoyl-3-fluorophenol] returned an inhibition at 100 µM (@ 100 uM) of 30%.

For the molecule `C[C@H](CC(N)=O)N[C@H](CC1CC1)c1ccc(Cl)c(C(=O)c2ccc(N)nc2)c1F` [Example 279, (3R)-3-{[(1R)-1-{3-[(6-aminopyridin-3-yl)carbonyl]-4-chloro-2-fluorophenyl}-2-cyclopropylethyl]amino}butanamide], the IC50 under setting [1] was 0.39 µM. With `CC[C@@H](N[C@H](C)CO)c1ccc(Cl)c(C(=O)c2cccnc2)c1F` [Example 166, (2R)-2-{[(1R)-1-{4-chloro-2-fluoro-3-[(pyridin-3-yl)carbonyl}phenyI}-propyl]amino}propan-1-ol], the IC50 reads like this: under setting [1], 6.3 µM; under setting [3], less than 30 µM.

In the case of `N#Cc1ccc(C(=O)c2c(Cl)ccc([C@H](N)C3CC3)c2F)nc1` [Example 62, 6-({3-[(R)-amino(cyclopropyl)methyl]-6-chloro-2-fluorophenyl}carbonyl)pyridine-3-carbonitrile], the IC50 under setting [1] was 0.32 µM and the IC50 under setting [2] is less than 1 µM. `CC[C@@H](NCC(N)=O)c1ccc(Cl)c(C(=O)c2cccnc2)c1F` [Example 164, 2-{[(1R)-1-{4-Chloro-2-fluoro-3-[(pyridin-3-yl)carbonyl]phenyl}propyl]amino}-acetamide] showed an inhibition at 10 µM of 37%. The molecule `CC(C)C[C@@H](N[C@H](C)CC(N)=O)c1ccc(Cl)c(C(=O)c2ccc(N)nc2)c1F` [Example 272, (3R)-3-{[(1R)-1-{3-[(6-aminopyridin-3-yl)carbonyl]-4-chloro-2-fluorophenyl}-3-methylbutyl]amino} butanamide] registered an inhibition at 3 µM of 43%. For the same molecule, the IC50 under setting [3] was less than 30 µM. `CC[C@@H](N[C@H](C)CC(N)=O)c1ccc(Cl)c(C(=O)c2ccc(C#N)nc2)c1F` [Example 141, (3R)-3-{[(1R)-1-{4-chloro-3-[(6-cyanopyridin-3-yl)carbonyl]-2-fluorophenyl}propyl]-amino}butanamide]: the IC50 is 0.47 µM under setting [1] and less than 1 µM under setting [2].

In the case of `CC[C@@H](N[C@@H](C)CO)c1ccc(Cl)c(C(=O)c2cccnc2)c1F` [Example 165, (2S)-2-{[(1R)-1-{4-chloro-2-fluoro-3-[(pyridin-3-yl)carbonyl]phenyl}-propyl]amino}-propan-1-ol], the IC50 under setting [1] is 1.4 µM and the IC50 under setting [2] lay in the range of 1 to 5 µM. As to `CC[C@@H](N)c1ccc(Cl)c(C(=O)c2ccc(C(=O)O)nc2)c1F` [Example 19, 5-({3-[(1R)-1-aminopropyl]-6-chloro-2-fluorophenyl}carbonyl)pyridine-2-carboxylic acid], the IC50 was 20 µM under setting [1] and less than 30 µM under setting [3]. Turning to `CC[C@@H](N[C@H](C)CC(N)=O)c1ccc(Cl)c(C(=O)c2cc[n+]([O-])cc2)c1F` [Example 143, (R)-3-{(R)-1-[4-Chloro-2-fluoro-3-(1-oxy-pyridine-4-carbonyl)-phenyl]propylamino}-butyramide], the “Assay A % inhibition average” value is recorded as 59% @ 30 uM. Besides, under setting [3], the IC50 is less than 30 µM. For `CC[C@@H](N[C@@H](C)CC(N)=O)c1ccc(Cl)c(C(=O)c2ccc(CO)cc2)c1F` [Example 186, (3S)-3-{[(1R)-1-(4-chloro-2-fluoro-3-{[4-(hydroxymethyl)-phenyl]carbonyl}phenyl)propyl]amino}-butanamide], the IC50 under setting [1] is 0.11 µM.

Regarding `CC[C@@H](NCCF)c1ccc(Cl)c(C(=O)c2cccnc2)c1F` [Example 290, [(1R)-1-{4-chloro-2-fluoro-3-[(pyridin-3-yl)carbonyl]phenyl}propyl] (2-fluoroethyl)amine], the IC50 by setting is: under setting [1], 14 µM; under setting [3], less than 30 µM. Turning to `CCC[C@@H](N)c1ccc(Cl)c(C(=O)c2ccc(N)nc2)c1F` [Example 66, 5-({3-[(1R)-1-aminobutyl]-6-chloro-2-fluorophenyl}carbonyl)pyridin-2-amine], under setting [1], the IC50 came to 0.2 µM. Turning to `CC[C@@H](N)c1ccc(Cl)c(C(=O)c2ccncc2)c1F` [Example 15, (1R)-1-{4-chloro-2-fluoro-3-[(pyridin-4-yl)carbonyl]phenyl}propan-1-amine], the IC50 reads like this: under setting [1], 0.84 µM; under setting [2], less than 1 µM. On the same counts, the results for `CC[C@@H](N)c1ccc(Cl)c(C(=O)c2ccc(CO)cc2)c1F` [Example 50, [4-({3-[(1R)-1-aminopropyl]-6-chloro-2-fluorophenyl}carbonyl)phenyl]methanol] are 0.21 µM and less than 1 µM. On the same counts, the results for `C=CC[C@@H](N[C@H](C)CC(N)=O)c1ccc(Cl)c(C(=O)c2ccc(N)nc2)c1F` [Example 257, (3R)-3-{[(1R)-1-{3-[(6-aminopyridin-3-yl)carbonyl]-4-chloro-2-fluorophenyl}but-3-en-1-yl]amino}butanamide] are 2 µM and 1 to 5 µM. Consider `CC[C@@H](N[C@H](C)CC(N)=O)c1ccc(Cl)c(C(=O)c2ccncn2)c1F` [Example 100, (3R)-3-{[(1R)-1-{4-chloro-2-fluoro-3-[(pyrimidin-4-yl)carbonyl]phenyl}propyl]amino}butanamide], for which the IC50 runs as follows: under setting [1], 14 µM; under setting [3], less than 30 µM.

For the setting “@ 30 uM”, `CC[C@@H](N)c1ccc(Cl)c(C(=O)c2cncnc2)c1F` [Example 12, (1R)-1-{4-chloro-2-fluoro-3-[(pyrimidin-5-yl)carbonyl]phenyl}-propan-1-amine] yielded an inhibition at 30 µM of 47%. Moreover, under setting [3], the IC50 was less than 30 µM.

As to `CC[C@@H](N[C@H](C)CC(N)=O)c1ccc(Cl)c(C(=O)c2ccc(N)c(C#N)c2)c1F` [Example 216, (3R)-3-{[(1R)-1-{3-[(4-amino-3-cyanophenyl)carbonyl]-4-chloro-2-fluorophenyl}propyl]amino} butanamide], the IC50 runs as follows: under setting [1], 0.48 µM; under setting [2], less than 1 µM. Under “@ 1 uM”, `CC[C@@H](N[C@H](C)CC(N)=O)c1ccc(Cl)c(C(=O)c2ccc(C#N)c(OC)c2)c1F` [Example 236, (3R)-3-{[(1R)-1-{4-chloro-3-[(4-cyano-3-methoxyphenyl)carbonyl]-2-fluorophenyl}propyl]amino}butanamide] showed an inhibition at 1 µM of 56%. Further, under setting [3], the IC50 is less than 30 µM. For the molecule `C[C@H](CC(N)=O)N[C@@H](c1ccc(Cl)c(C(=O)c2cnc(N)cn2)c1F)C1CC1` [Example 195, (3R)-3-{[(R)-{3-[(5-aminopyrazin-2-yl)carbonyl]-4-chloro-2-fluorophenyl}(cyclo-propyl)methyl]amino}-butanamide], the IC50 by setting is: under setting [1], 6.2 µM; under setting [3], less than 30 µM. Molecule `CC[C@@H](N)c1ccc(Cl)c(C(=O)c2ccc(-n3cc(CO)cn3)nc2)c1F` [Example 46, {1-[5-({3-[(1R)-1-aminopropyl]-6-chloro-2-fluorophenyl}carbonyl)pyridin-2-yl]-1H-pyrazol-4-yl}methanol] yielded an inhibition at 10 µM of 64%. Further, the IC50 under setting [3] was less than 30 µM. As for `CC[C@H](NC(=O)C[C@@H](N)C(C)C)c1ccc(Cl)c(C(=O)c2cccnc2)c1F` [Example 298, (3R)-3-amino-N-[(1S)-1-{4-chloro-2-fluoro-3-[(pyridin-3-yl)carbonyl]phenyl}propyl]-4-methylpentanamide], the IC50 is, setting by setting: under setting [1], 0.064 µM; under setting [2], less than 1 µM.

As for `Cc1cc(C(=O)c2c(Cl)ccc([C@H](N[C@H](C)CC(N)=O)C3CC3)c2F)ccc1N` [Example 203, (3R)-3-{[(R)-{3-[(4-amino-3-methylphenyl)carbonyl]-4-chloro-2-fluorophenyl}(cyclopropyl)methyl]amino}butanamide], the IC50 under setting [1] was 0.27 µM. As for `CC[C@@H](NCC1CC1)c1ccc(Cl)c(C(=O)c2cccnc2)c1F` [Example 284], the IC50 by setting is: under setting [1], 2.7 µM; under setting [2], 1 to 5 µM. Regarding `CC[C@@H](N)c1ccc(Cl)c(C(=O)c2cnc(SC)nc2)c1F` [Example 51, (1R)-1-(4-chloro-2-fluoro-3-{[2-(methylsulfanyl)pyrimidin-5-yl]carbonyl}phenyl)propan-1-amine], the inhibition at 3 µM amounted to 44%. Further, the IC50 under setting [3] is less than 30 µM. Take `CC[C@@H](N[C@H](C)CC(N)=O)c1ccc(Cl)c(C(=O)c2ccc(O)cc2)c1F` [Example 231, (3R)-3-{[(1R)-1-{4-chloro-2-fluoro-3-[(4-hydroxyphenyl)carbonyl]phenyl}propyl]amino}butanamide]: the IC50 is 2.1 µM under setting [1] and 1 to 5 µM under setting [2]. With `NC(=O)CCN[C@@H](c1ccc(Cl)c(C(=O)c2cnc(N)cn2)c1F)C1CC1` [Example 185, 3-{[(R)-{3-[(5-aminopyrazin-2-yl)carbonyl]-4-chloro-2-fluorophenyl}(cyclo-propyl)methyl]amino}-propanamide], the IC50 under setting [1] stood at 0.6 µM.

`CC[C@@H](N)c1ccc(OC)c(C(=O)c2ccccc2)c1F` [Example 40, (1R)-1-(3-benzoyl-2-fluoro-4-methoxyphenyl)propan-1-amine]: the IC50 was 0.84 µM under setting [1] and less than 1 µM under setting [2].
